Where only a bound is given, the exact number is not on record here.

Data on one compound can be found in paper PMC4409337, “Immucillins Impair Leishmania (L.) infantum chagasi and Leishmania (L.) amazonensis Multiplication In Vitro” (PLoS ONE, 2015).

For data set [1], the target named is T1, Nucleoside hydrolase NH36 (Leishmania donovani, UniProt Q8WQX2).
T1 sequence (Q8WQX2 1-314): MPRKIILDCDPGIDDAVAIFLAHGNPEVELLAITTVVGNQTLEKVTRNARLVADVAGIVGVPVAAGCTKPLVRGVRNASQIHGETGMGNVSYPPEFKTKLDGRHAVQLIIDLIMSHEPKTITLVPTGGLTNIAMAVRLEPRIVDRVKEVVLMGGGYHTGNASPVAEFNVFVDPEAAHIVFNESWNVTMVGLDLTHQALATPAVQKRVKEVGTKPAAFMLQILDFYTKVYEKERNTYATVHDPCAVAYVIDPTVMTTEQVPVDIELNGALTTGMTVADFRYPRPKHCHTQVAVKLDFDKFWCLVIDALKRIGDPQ
The data set can be described thus: Ki determination: inhibition of NH36 activity by immucillins. It is filed as biochemical, Leishmania (L.) donovani. Conditions: 10 mM inosine as substrate, 0.5 nM NH36, pH 7.4, room temperature. The protocol:
BL21DE3 E.coli were transformed with the synthetic plasmid pET 28b encoding the gene of NH36 of Leishmania (L.) donovani (EMBL, Genbank and DDJB data bases, access number AY007193) with a His6tag at the C-terminal. Expression was induced with 0.5 mM IPTG and overnight incubation at 20°C. Purification of NH36 was performed on a column of Ni-NTA Superflow resin (Qiagen, USA) eluted by a stepwise imidazole gradient and monitored by SDS-polyacrylamide gel electrophoresis and protein assay. The extinction coefficient of NH36 is 21.437 mM^-1 cm^-1 at 280 nm, as calculated with the ProtParam program from ExPASy, and was used to estimate protein concentration (http://ca.expasy.org/seqanalref/). The yield of NH36 after purification was 11.87 mg per Liter of bacterial growth culture. Non-specific His-proteins with weak interactions were eluted with 50–100 mM imidazole (S1 Fig). The purified NH36 started to elute with 150 mM imidazole. We used 250 mM of imidazol in elution buffer for purification of NH36.
The reaction mixtures contained 10 mM inosine as substrate, 50 mM Hepes (pH 7.4), 100 mM KCl, 5 mM DTT and 1 unit XOD. The hydrolysis of inosine to hypoxanthine and ribose was followed by continuous reading of optical absorbance at 293 nm, using variable concentrations of inhibitors in a CARY 300UV-visible spectrophotometer. Controls without enzyme and without inhibitors were included in all inhibition assays. The inhibition constant for each immucillin was obtained, using GraFit 5 (Erithacus Software), by fitting initial rates with variable inhibitor concentrations to the equation (vi/v0 = [S] / Km + [S] + Km[I] / Ki), where v i is the initial rate in the presence of the inhibitor, v 0 is the initial rate in the absence of the inhibitor, K m is the Michaelis constant for inosine, [S] and [I] are inosine and inhibitor concentrations, respectively, and Ki is the inhibition constant.

The subject of data set [2] is L. (L.) amazonensis promastigotes. Nature of the data set: In vitro growth of promastigotes in FBS supplemented Schneider's insect medium. It is filed as cell-based, Leishmania (L.) amazonensis. The following applies: Leishmania amazonensis. From the text: The strain of Leishmania (L.) infantum chagasi MHOM/BR/1974/PP75 was obtained from the Leishmania Type Culture Collection (Fundacão Oswaldo Cruz, Rio de Janeiro, RJ, Brazil) and the strain of Leishmania (L.) amazonensis (MHOM/BR/1975/Josefa) was kindly given by Professor Rosâ[…] from Universidade Federal do Rio de Janeiro. Promastigotes were maintained by weekly transfers in screw-capped glass tubes containing Schneider's insect medium (Sigma Aldrich, MO, USA), pH 7.0, supplemented with 10% Fetal Bovine Serum (FBS) at 26°C. Stock solutions (20 mM) of immucillins IA […] prepared using Milli-Q purified water. Log phase promastigotes of L. (L.) infantum chagasi and L. […] Promastigotes were recorded in a Neubauer chamber after 24, 48, 72 and 96 hours of incubation at 26°C. […] We also assayed the possibility of reversing the inhibitory effect of IA in RPMI medium by the addition of adenosine to the culture medium. The concentration of adenosine in Schneider s insect serum supplemented medium was assessed by HPLC using a C-18 reverse-phase column as described.

Data set [3] has as its system L. (L.) infantum chagasi promastigotes. Described as above. In kind it is cell-based, Leishmania (L.) infantum chagasi. The following applies: Leishmania infantum. From the text: The strain of Leishmania (L.) infantum chagasi MHOM/BR/1974/PP75 was obtained from the Leishmania Type Culture Collection (Fundacão Oswaldo Cruz, Rio de Janeiro, RJ, Brazil) and the strain of Leishmania (L.) amazonensis (MHOM/BR/1975/Josefa) was kindly given by Professor Rosâ[…] from Universidade Federal do Rio de Janeiro. Promastigotes were maintained by weekly transfers in screw-capped glass tubes containing Schneider's insect medium (Sigma Aldrich, MO, USA), pH 7.0, supplemented with 10% Fetal Bovine Serum (FBS) at 26°C. […] Log phase promastigotes of L. (L.) infantum chagasi and L. […] Promastigotes were recorded in a Neubauer chamber after 24, 48, 72 and 96 hours of incubation at 26°C. […] The concentration of adenosine in Schneider s insect serum supplemented medium was assessed by HPLC using a C-18 reverse-phase column as described.

Data set [4] can be described thus: Macrophage viability and cytotoxicity (Trypan Blue). Conditions: female, BALB/c, mouse, peritoneal macrophages. The protocol:
Alternatively, the immucillins were added at 0, 24 and 48 h and viability assessed after 72h. […] The amastigote growth was assessed 24 h after the last drug addition, on 200 cells in Giemsa stained coverslips and expressed as phagocytic index = percent of infected macrophages x average number of intracellular amastigotes. […] All experiments with mice were reviewed and approved by the Animal Care and Use Committee of the Instituto de Biofísica Carlos Chagas Fo.-UFRJ (CAUAP-CONCEA, Brazil, IMPPG-016) and were performed according to the guidelines of the National Institutes of Health, USA. We made all efforts in order to minimize animal suffering.

For data set [5], the system named is L. (L.) infantum chagasi promastigotes. The data set can be described thus: Promastigote multiplication in chemically defined RPMI medium. In kind it is cell-based, Leishmania (L.) infantum chagasi. On the procedure:
Stock solutions (20 mM) of immucillins IA […] prepared using Milli-Q purified water. Log phase promastigotes of L. (L.) infantum chagasi and L. […] Promastigotes were recorded in a Neubauer chamber after 24, 48, 72 and 96 hours of incubation at 26°C. […] We also assayed the possibility of reversing the inhibitory effect of IA in RPMI medium by the addition of adenosine to the culture medium. The concentration of adenosine in Schneider s insect serum supplemented medium was assessed by HPLC using a C-18 reverse-phase column as described.

In data set [1], `Nc1ncnc2c(C3N[C@H](CO)[C@@H](O)[C@H]3O)c[nH]c12` (stereo partly drawn) [IA] gave a Ki of 0.08 µM. The inhibition at 500 µM was determined as 76% in data set [2] (500 μM, after 96 h of culture, read-out: percent inhibition on L. (L.) amazonensis replication) and 78% in data set [3] (500 μM, after 96 h of culture, read-out: percent inhibition on L. (L.) infantum chagasi promastigote growth). Also, the half-inhibitory concentration (IC50) was 48.7 µM in data set [2] (single addition at 0 h, evaluated after 48 hours, 26°C, read-out: IC50 (CI 95%) on L. (L.) amazonensis promastigotes in vitro growth); 3.6 µM in data set [3] (drugs added at 0, 24 and 48 h, after 48h, read-out: IC50 on promastigote growth, daily addition); less than 0.05 µM in data set [3] (drugs added at 0, 24 and 48 h, at 72 and 96 h, read-out: IC50 on promastigote growth, daily addition); 23.9 µM in data set [3] (single addition at 0 h, evaluated after 48 hours, 26°C, read-out: IC50 (CI 95%) on L. (L.) infantum chagasi promastigotes in vitro growth); 75 µM in data set [5] (Leishmania infantum, RPMI medium lacking nucleosides or nucleobases, 72 h). The compound further registered a CC50 at 48 h in data set [4] of 900 µM. In addition, in data set [5] (Leishmania infantum, 10 μM, 72 h, compared to RPMI with no addition), the inhibition at 10 µM was determined as 38%. In data set [5] (Leishmania infantum, 50 μM, 72 h, compared to RPMI with no addition), this compound gave an inhibition at 50 µM of 46%. Besides, in data set [5] (RPMI with 50 μM IA and 50-500 μM adenosine, 72h), the “reversal of growth inhibition by adenosine” value is given as “can be reversed by the presence of exogenous adenosine”.

The term Ki denotes a measure of affinity in units of concentration, obtained from inhibition or displacement. A higher Ki goes with a looser hold on the target. The term inhibition denotes the change of the read-out against control, counted positive when it falls. As usually defined, the IC50 is the concentration needed to halve the response being measured. Usually CC50 stands for the concentration that lowers cell viability or growth by half.
